The values below are quoted from earlier work in article PMC3744102 (2010).

“And” between values parts separate entries of the source, which are not always exact repeats. Identical values can stand only once. “Also recorded” adds a separate entry of the source.

Series [1] is described as follows: human blood.
Series [2] can be described thus: rhesus monkey blood.

With Y-G-G-F-L-R-R-I-R-P-K-L-K-W-D-N-Q, in series [1], the cleaved bond result is recorded as “Arg6-Arg7, major; also recorded: Tyr1-G2, major”; the fragment found was 3–17 and 4–17 and 2–6 and 8–17 and 9–17 and 11–17. Besides, in series [2], the cleaved bond result is reported as “Arg6-Arg7, major; also recorded: Tyr1-G2, major”; the fragment found was 2–6 and 8–17 and 9–17 and 11–17 and 3–17 and 4–17.
